According to patent publication US7820642B2, “Nandrolone 17β-carbonates” (The United States of America as represented by the …, priority 2005, dated 2010):
Entries after “also recorded” stand apart in the source; their conditions may differ.

Tests used:
Type in all cases: in vivo, rat
[1] = tested on: castrate Sprague-Dawley male rats; test: Duration of androgenic activity after a single subcutaneous injection (ventral prostate weight, AUC); conditions: for Duration of androgenic activity (in words): single subcutaneous injection in aqueous vehicle; for AUC of ventral prostate weight (duration of androgenic activity): 14 weeks
Experimental: Duration of androgenic activity was determined as follows. Immature (22 days of age) male rats of the Sprague-Dawley CD strain were orchidectomized under METOFANE anesthesia and randomly assigned to groups of forty or more animals. Animals were maintained under standard conditions of housing and had free access to food and water. Illumination was controlled for 14-hour periods of light and 10 hours of darkness. Animals received a single subcutaneous injection of 0.6 mg of test material in aqueous suspending vehicle (ASV) and/or an oily vehicle (10% ethanol/sesame oil, sesame oil containing 5 mg/ml chlorobutanol as a preservative or ethyl oleate) on the day of surgery. Controls received vehicle alone. Testosterone enanthate in sesame oil was used as a standard. In cases where the test material was not solid at room temperature, i.e., a wax or oil, 10% ethanol/sesame oil or ethyl oleate was used as a vehicle. Five rats from each group were sacrificed at weekly or biweekly intervals and seminal vesicle and ventral prostate glands were excised, cleaned of adherent fat and connective tissue and weighed to the nearest 0.1 mg. Ventral prostate weight was used as the endpoint because it is the more sensitive organ to androgenic stimulation. Area under the curve (AUC) was calculated by the trapezoidal rule.
Each data point represents the mean (n=5) and standard error of the mean (SEM) prostate weight for each time period. […] In FIG. 8, the data for 1.2 mg dose groups are shown together with historical data for testosterone undecanoate in aqueous suspension and testosterone enanthate in sesame oil as standards. Both testosterone undecanoate and testosterone enanthate are commercially available.

[2] = tested on: luteinizing hormone (rLH); test: Serum rLH in castrate male rats
Experimental: FIG. 14 depicts the serum levels of rLH as a function of time for groups 2 and 4 of the animals. Serum rLH were measured in the blood from castrate male rats following fourteen daily 12 mg/kg oral doses of CDB-4719A (dimethandrolone 17β-decylcarbonate, filled circles, group 2) or CDB-4521C (dimethandrolone 17β-undecanoate, open triangles, group 4) in 10% ethanol/sesame oil on days 0-13. Samples from weeks −1 to 6 or from weeks 7 to 9 and repeats were assayed as described in the protocols MEL-480AD using [^125I]-rLH or MEL-480AE, AG using [^125I]-rLH. The limit of detection shown as dotted line, or EC90, was the mean of 0.13, 0.14, or 0.16 in the first assay and 0.17, 0.22, or 0.21 ng/ml in the second series of assays based on 200 μl of serum per tube.
FIG. 15 depicts the serum levels of rLH as a function of time for groups 1 and 3 of the animals. Serum rLH were measured in the blood from castrate male rats following a single 12 mg/kg subcutaneous injection of CDB-4719A (dimethandrolone 17β-decylcarbonate, filled circles, group 1) or CDB-4521C (dimethandrolone 17β-undecanoate, open triangles, group 3) in an aqueous suspending vehicle on day 0. Samples from weeks −1 to 6 or from weeks 7 to 22 and repeats were assayed as described in the protocols MEL-480AD using [^125I]-rLH or MEL-480AE, AG, AH using [^125I]-rLH. The limit of detection shown as dotted line, or EC90, was the mean of 0.13, 0.14, or 0.16 in the first assay and 0.17, 0.22, or 0.21 ng/ml in the second series of assays based on 200 μl of serum per tube.
Carbonates of the invention, in embodiments, can be used to suppress luteinizing hormone in a mammal for extended periods of time. […] CDB-4719A (dimethandrolone 17β-decylcarbonate) was administered to castrate male rats, daily at 12 mg/kg oral doses, and CDB-4521C (dimethandrolone 17β-undecanoate) was administered in 10% ethanol/sesame oil, on days 0-13. […] This observation could have advantageous clinical implications, for example, in obtaining sustained suppression of the luteinizing hormone or hormone replacement therapy. In addition, this could have an advantage by providing a facile treatment using oral compositions such as tablets or capsules of the carbonates of the invention in suppressing hormone levels. Such treatment can be advantageous relative to a treatment involving parenteral (e.g., subcutaneous) administration of a drug such as the ester drug. Patient compliance is better with oral formulations than injections.
FIG. 15 provides a comparison between CDB-4719A (dimethandrolone 17β-decylcarbonate) and CDB-4521C (dimethandrolone 17β-undecanoate). A single dose (12 mg/kg) of the compound was administered to castrate male rats by subcutaneous injection in an aqueous suspending vehicle on day 0. The serum rLH concentration was monitored over a 22-week period and beyond.

[3] = tested on: castrate Sprague-Dawley male rats; test: Androgenic activity, Hershberger test (ventral prostate weight)
Experimental: The androgenic activity was tested as follows (see, Hershberger et al., Proc. Soc. Exptl. Biol. Med., 83: 175-180 (1953)). Immature (approximately 21 day old) male rats of the Sprague-Dawley strain were orchidectomized under METOFANE® anesthesia and randomly assigned to groups of ten animals for each dose level of test material and vehicle controls. Animals were maintained under standard conditions of housing and had free access to food and water. Illumination was controlled for 14-hour periods of light and 10 hours of darkness. Test compounds were dissolved in 10% ethanol/sesame oil and administered by gavage (oral) or subcutaneous injection daily for seven consecutive days starting on the day of surgery. Animals were sacrificed 24 hours after the last dose and the ventral prostate and seminal vesicles excised, cleaned of fat and connective tissue, blotted on moist filter paper and weighed to the nearest 0.1 mg. Ventral prostate weight was used as the endpoint because ventral prostate is the more sensitive organ to androgenic stimulation.
Statistical analysis was performed by conventional methods using a PROPHET data management system operating on SUN Microsystems OS 4.1.1 (see e.g., Bliss, Cl (1952) The Statistics of Bioassay, New York, Academic Press; Hollister, C (1988), Nucleic Acids Research, 16:1873-1875.
Each data point represents the mean (n=10) and standard error of the mean (SEM) prostate weight for each dose level. The potency ratio and 95% confidence index are set forth below.

[4] = Serum levels of dimethandrolone (CDB-1321) and immunoreactive metabolites by radioimmunoassay; set-up: AUC of serum concentration of dimethandrolone and immunoreactive metabolites: unit not given here; conditions: for AUC of serum concentration of dimethandrolone and immunoreactive metabolites: n=5, FIG. 9
Experimental: Serum levels of testosterone and CDB-1321 were determined as follows. Rats from a duration of androgenic activity study were exsanguinated at autopsy, serum prepared by allowing blood to clot at room temperature and the sample frozen for subsequent radioimmunoassay. A radioimmunoassay for the free alcohol, 7a, 11β-dimethyl-19-nortestosterone, was developed using antisera generated in rabbits against the 3-carboxymethyloxime-BSA conjugate and employing the corresponding histamine conjugate for iodination as tracer.

[5] = 1.2 mg, 14-week observation period
[6] = single subcutaneous injection of 0.6 mg in aqueous suspending vehicle
[7] = single subcutaneous injection of 1.2 mg in aqueous suspending vehicle
[8] = fourteen daily 12 mg/kg oral doses in 10% ethanol/sesame oil, days 0-13, FIG. 14
[9] = oral, daily for 7 days in 10% ethanol/sesame oil, CDB 110 (methyltestosterone) = 1.000 assigned, FIG. 5, ranges did not pass all significance tests
[10] = subcutaneous injection, daily for 7 days, CBD-111 (testosterone) = 1.000 assigned, FIG. 6, footnote 2 values did not pass all significance tests

SMILES: CCCCCCCCCCOC(=O)O[C@H]1CC[C@H]2[C@H]3[C@H]([C@@H](C)C[C@]12C)[C@H]1CCC(=O)C=C1C[C@H]3C [CDB-4719, 17β-Decyloxycarbonyloxy-7α,11β-dimethylestr-4-en-3-one]
- AUC relative to testosterone enanthate in sesame oil [1, 5]: more than three times greater
- AUC relative to testosterone undecanoate [1, 5]: more than five times greater
- Duration of androgenic activity (in words) [1]: far more potent than testosterone; also recorded: most dramatic increase and maintenance of ventral prostate weight
- AUC of ventral prostate weight (duration of androgenic activity) [1, 6]: 1417 mg·week
- AUC of ventral prostate weight (duration of androgenic activity) [1, 7]: 2764 mg·week
- Serum rLH after administration was discontinued [2, 8]: remained suppressed for several weeks
- Serum rLH during administration [2, 8]: remained suppressed
- Serum rLH up to 16 weeks post administration ([2]; single 12 mg/kg subcutaneous injection in aqueous suspending vehicle on day 0, FIG. 15): remains suppressed
- Serum rLH after 16 weeks ([2]; single 12 mg/kg subcutaneous injection in aqueous suspending vehicle on day 0, monitored over 22 weeks, FIG. 15): remained suppressed even at week 22
- Androgenic activity Potency Ratio [3, 9]: five to nine times
- Androgenic activity Potency Ratio ([3]; oral, daily for 7 days in 10% ethanol/sesame oil, CDB 110 (methyltestosterone) = 1.000 assigned, FIG. 5, ranges did not pass all significance tests, listed as 4719): 5.486-8.992^1,2
- Androgenic activity Potency Ratio, 4718 vs. 4719 ([3]; oral, direct comparison of CDB-4718 and CDB-4719): 3.016
- Androgenic activity Potency Ratio [3, 10]: no more potent than testosterone standard
- Androgenic activity Potency Ratio ([3]; subcutaneous injection, daily for 7 days, CBD-111 (testosterone) = 1.000 assigned, FIG. 6, footnote 2 values did not pass all significance tests, listed as 4719): 0.64
- AUC of serum concentration of dimethandrolone and immunoreactive metabolites [4, 6]: 4151
- AUC of serum concentration of dimethandrolone and immunoreactive metabolites [4, 7]: 6010

SMILES: CCCCCCCCCCCCOC(=O)O[C@H]1CC[C@H]2[C@H]3[C@H]([C@@H](C)C[C@]12C)[C@H]1CCC(=O)C=C1C[C@H]3C [CDB-4730, 17β-Dodecyloxycarbonyloxy-7α,11β-dimethylestr-4-en-3-one]
- Duration of androgenic activity (in words) [1]: far more potent; also recorded: exhibited similar long-acting activity
- Androgenic activity Potency Ratio [3, 9]: 0.97-3.82
- Androgenic activity Potency Ratio ([3]; oral, daily for 7 days in 10% ethanol/sesame oil, CDB 110 (methyltestosterone) = 1.000 assigned, FIG. 5, ranges did not pass all significance tests, listed as 4730): 0.97-3.82^1,2
- Potency as percent of the subcutaneous standard, testosterone ([3]; subcutaneous injection): 5%
- Androgenic activity Potency Ratio [3, 10]: 0.05^1,2
- Serum levels of dimethandrolone and immunoreactive metabolites over time ([4]; single subcutaneous dose of 0.6 or 1.2 mg per rat in aqueous suspending vehicle, FIG. 16): decreased with time as expected
